Results on 18 compounds are retold here after US12630547B2, “RAS protein degraders, pharmaceutical compositions thereof, and their therapeutic applications” (BioTheryX, Inc., priority 2019, dated 2026).

In the first assay the test system is MOLM-13 cells. In words: Cell viability assay (CELLTITER-GLO), MOLM-13 cells. The conditions noted are these: Homo sapiens, MOLM-13, 72 h; Table 2; compound at 10 μM, 3 days; read-out: Effect on MOLM-13 cell viability (% DMSO). The class given is cell-based. The protocol: MOLM-13 cells, MV-4-11 cells, H23, and H358 cells were independently cultured in RPMI 1640 media supplemented with 10% fetal bovine serum, streptomycin and penicillin. The cells were plated in white walled 96-well plates at 4,000 cells/well. The cells were incubated in DMSO (control) or a compound for 3 days at 37° C. under 5% CO2. A CELLTITER-GLO® reagent (100 μL) was then added to each well. After a 10 min incubation with shaking, luminescence was measured using an ENVISION® multimode plate reader.
In Tables 1 and 2, each compound was tested at 10 μM; and in Table 3, each compound was tested at 1 μM. In Tables 1 to 3, the cell viability values as % DMSO are reported as “A,” “B,” “C,” or “D;” where “A” represents a % viability value of less than 10%; “B” represents a % viability value of no less than 10% and less than 25%; “C” represents a % viability value of no less than 25% and less than 50%; and “D” represents a % viability value of no less than 50%. Compound A is […]
For `C=CC(=O)N1CC(N2Cc3ccc(-c4cc(O)cc5ccccc45)cc3N(CCOCCOCCC(=O)NCCOc3cccc4c3C(=O)N(C3CCC(=O)NC3=O)C4=O)C2=O)C1` (stereo not drawn) [Compound 11, 3-(2-(2-(3-(1-Acryloylazetidin-3-yl)-7-(3-hydroxynaphthalen-1-yl)-2-oxo-3,4-dihydroquinazolin-1(2H)-yl)ethoxy)ethoxy)-N-(2-((2-(2,6-dioxopiperidin-3-yl)-1,3-dioxoisoindolin-4-yl)oxy)ethyl)propanamide], the viability at 10 µM is at least 50%.
As for `CCC(=O)N1CC(N2Cc3ccc(-c4cc(O)cc5ccccc45)cc3N(CCOCCOCCOCCNc3cccc4c3C(=O)N(C3CCC(=O)NC3=O)C4=O)C2=O)C1` (stereo not drawn) [Compound 12, 2-(2,6-Dioxopiperidin-3-yl)-4-((2-(2-(2-(2-(7-(3-hydroxynaphthalen-1-yl)-2-oxo-3-(1-propionylazetidin-3-yl)-3,4-dihydroquinazolin-1(2H)-yl)ethoxy)ethoxy)ethoxy)ethyl)amino)-isoindoline-1,3-dione], the viability at 10 µM is at least 50%.
For the compound `C=CC(=O)N1CCN(c2ncnc3c(F)c(-c4c(O)cccc4F)c(Cl)cc23)C(CC(=O)NCCCCCNC(=O)NCc2cc3c(s2)C(=O)N(C2CCC(=O)NC2=O)C3)C1` (stereo not drawn) [Compound 13, 2-(4-Acryloyl-1-(6-chloro-8-fluoro-7-(2-fluoro-6-hydroxyphenyl)quinazolin-4-yl)piperazin-2-yl)-N-(5-(3-((5-(2,6-dioxopiperidin-3-yl)-6-oxo-5,6-dihydro-4H-thieno[2,3-c]pyrrol-2-yl)methyl)ureido)pentyl)acetamide], the viability at 10 µM was at least 50%.
Take `C=CC(=O)N1CC(c2nc3ccc(-c4cc(O)cc5ccccc45)cc3c(=O)n2CCOCCOCCNCc2ccc(OCc3scc4c3CN([C@H]3CCC(=O)NC3=O)C4=O)cc2)C1` [Compound 14, (S)-3-(1-((4-(((2-(2-(2-(2-(1-Acryloylazetidin-3-yl)-6-(3-hydroxynaphthalen-1-yl)-4-oxoquinazolin-3(4H)-yl)ethoxy)ethoxy)ethyl)amino)methyl)phenoxy)methyl)-4-oxo-4H-thieno[3,4-c]pyrrol-5(6H)-yl)piperidine-2,6-dione]: the viability at 10 µM was at least 50%.
The same measure, in the same setting: the value for `C=CC(=O)N1CC(c2nc3ccc(-c4cc(O)cc5ccccc45)cc3c(=O)n2CCNCc2ccc(OCc3scc4c3CN([C@H]3CCC(=O)NC3=O)C4=O)cc2)C1` [Compound 15, (S)-3-(1-((4-(((2-(2-(1-Acryloylazetidin-3-yl)-6-(3-hydroxynaphthalen-1-yl)-4-oxoquinazolin-3(4H)-yl)ethyl)amino)methyl)phenoxy)methyl)-4-oxo-4H-thieno[3,4-c]pyrrol-5(6H)-yl)piperidine-2,6-dione] was at least 50%; that for `C=CC(=O)N1CC(N2Cc3ccc(-c4cc(O)cc5ccccc45)cc3N(CCCCNCc3ccc(OCc4scc5c4CN([C@H]4CCC(=O)NC4=O)C5=O)cc3)C2=O)C1` [Compound 16, (S)-3-(1-((4-(((4-(3-(1-Acryloylazetidin-3-yl)-7-(3-hydroxynaphthalen-1-yl)-2-oxo-3,4-dihydroquinazolin-1(2H)-yl)butyl)amino)methyl)phenoxy)methyl)-4-oxo-4H-thieno[3,4-c]pyrrol-5(6H)-yl)piperidine-2,6-dione] was at least 50%; that for `C=CC(=O)N1CC(c2nc3ccc(-c4cc(O)cc5ccccc45)cc3c(=O)n2CC(=O)NCCOCCOCCOCCNc2cccc3c2C(=O)N(C2CCC(=O)NC2=O)C3=O)C1` (stereo not drawn) [Compound 17, 2-(2-(1-Acryloylazetidin-3-yl)-6-(3-hydroxynaphthalen-1-yl)-4-oxoquinazolin-3(4H)-yl)-N-(2-(2-(2-(2-((2-(2,6-dioxopiperidin-3-yl)-1,3-dioxoisoindolin-4-yl)amino)ethoxy)ethoxy)ethoxy)-ethyl)acetamide] was at least 50%.
The same measure, in the same setting: the value for `C=CC(=O)N1CC(c2nc3ccc(-c4cc(O)cc5ccccc45)cc3c(=O)n2CCNCc2ccc(OCc3scc4c3CN(C3CCC(=O)NC3=O)C4=O)cc2)C1` (stereo not drawn) [Compound 18, 3-(1-((4-(((2-(2-(1-Acryloylazetidin-3-yl)-6-(3-hydroxynaphthalen-1-yl)-4-oxoquinazolin-3(4H)-yl)ethyl)amino)methyl)phenoxy)methyl)-4-oxo-4H-thieno[3,4-c]pyrrol-5(6H)-yl)piperidine-2,6-dione] was at least 50%; that for `C=CC(=O)N1CC(N2Cc3ccc(-c4cc(O)cc5ccccc45)cc3N(CCCCNCc3ccc(OCc4scc5c4CN(C4CCC(=O)NC4=O)C5=O)cc3)C2=O)C1` (stereo not drawn) [Compound 19, 3-(1-((4-(((4-(3-(1-Acryloylazetidin-3-yl)-7-(3-hydroxynaphthalen-1-yl)-2-oxo-3,4-dihydroquinazolin-1(2H)-yl)butyl)amino)methyl)phenoxy)methyl)-4-oxo-4H-thieno[3,4-c]pyrrol-5(6H)-yl)piperidine-2,6-dione] was at least 50%; that for `C=CC(=O)N1CC(c2nc3ccc(-c4cc(O)cc5ccccc45)cc3c(=O)n2CCOCCNCc2ccc(OCc3scc4c3CN(C3CCC(=O)NC3=O)C4=O)cc2)C1` (stereo not drawn) [Compound 21, 3-(1-((4-(((2-(2-(2-(1-Acryloylazetidin-3-yl)-6-(3-hydroxynaphthalen-1-yl)-4-oxoquinazolin-3(4H)-yl)ethoxy)ethyl)amino)methyl)phenoxy)methyl)-4-oxo-4H-thieno[3,4-c]pyrrol-5(6H)-yl)piperidine-2,6-dione] was at least 50%.

The assay is the same for the next values; noted with them: Homo sapiens, MOLM-13, 72 h; Table 3; compound at 1 μM, 3 days; read-out: Effect on MOLM-13 cell viability (% DMSO).
Regarding `C=CC(=O)N1CCN(c2ncnc3c(F)c(-c4c(F)cccc4OCCOCCOCCC(=O)NCCOc4cccc5c4C(=O)N(C4CCC(=O)NC4=O)C5=O)c(Cl)cc23)CC1` (stereo not drawn) [Compound 3, 3-(2-(2-(2-(4-(4-Acryloylpiperazin-1-yl)-6-chloro-8-fluoroquinazolin-7-yl)-3-fluorophenoxy)ethoxy)ethoxy)-N-(2-((2-(2,6-dioxopiperidin-3-yl)-1,3-dioxoisoindolin-4-yl)oxy)ethyl)propanamide], the viability at 1 µM is at least 50%.
For the compound `CCC(=O)N1CC(N2Cc3ccc(-c4cc(O)cc5ccccc45)cc3N(CCNCc3ccc(OCc4scc5c4CN(C4CCC(=O)NC4=O)C5=O)cc3)C2=O)C1` (stereo not drawn) [Compound 4, 3-(1-((4-(((2-(7-(3-Hydroxynaphthalen-1-yl)-2-oxo-3-(1-propionylazetidin-3-yl)-3,4-dihydroquinazolin-1(2H)-yl)ethyl)amino)methyl)phenoxy)methyl)-4-oxo-4H-thieno[3,4-c]pyrrol-5(6H)-yl)piperidine-2,6-dione], the viability at 1 µM was in the range of 10 to 25%.
Still for that read-out and setting: the value for `CCC(=O)N1CC(N2Cc3ccc(-c4cc(O)cc5ccccc45)cc3N(CCOCCNCc3ccc(OCc4scc5c4CN(C4CCC(=O)NC4=O)C5=O)cc3)C2=O)C1` (stereo not drawn) [Compound 5, 3-(1-((4-(((2-(2-(7-(3-Hydroxynaphthalen-1-yl)-2-oxo-3-(1-propionylazetidin-3-yl)-3,4-dihydroquinazolin-1(2H)-yl)ethoxy)ethyl)amino)methyl)phenoxy)methyl)-4-oxo-4H-thieno[3,4-c]pyrrol-5(6H)-yl)piperidine-2,6-dione] was at least 50%.
For `CCC(=O)N1CCN(c2ncnc3c(F)c(-c4c(F)cccc4OCCOCCOCCC(=O)NCCNc4cccc5c4C(=O)N(C4CCC(=O)NC4=O)C5=O)c(Cl)cc23)CC1` (stereo not drawn) [Compound 6, 3-(2-(2-(2-(6-Chloro-8-fluoro-4-(4-propionylpiperazin-1-yl)quinazolin-7-yl)-3-fluorophenoxy)ethoxy)ethoxy)-N-(2-((2-(2,6-dioxopiperidin-3-yl)-1,3-dioxoisoindolin-4-yl)amino)ethyl)propanamide], the viability at 1 µM is at least 50%.
As to `CCC(=O)N1CC(N2Cc3ccc(-c4cc(O)cc5ccccc45)cc3N(CCOCCOCCC(=O)NCCOc3cccc4c3C(=O)N(C3CCC(=O)NC3=O)C4=O)C2=O)C1` (stereo not drawn) [Compound 7, N-(2-((2-(2,6-Dioxopiperidin-3-yl)-1,3-dioxoisoindolin-4-yl)oxy)ethyl)-3-(2-(2-(7-(3-hydroxynaphthalen-1-yl)-2-oxo-3-(1-propionylazetidin-3-yl)-3,4-dihydroquinazolin-1(2H)-yl)ethoxy)ethoxy)propanamide], the viability at 1 µM was at least 50%.
Regarding `CCC(=O)N1CCN(c2ncnc3c(F)c(-c4c(F)cccc4OCCOCCOCCC(=O)NCCOc4cccc5c4C(=O)N(C4CCC(=O)NC4=O)C5=O)c(Cl)cc23)CC1` (stereo not drawn) [Compound 8, 3-(2-(2-(2-(6-Chloro-8-fluoro-4-(4-propionylpiperazin-1-yl)quinazolin-7-yl)-3-fluorophenoxy)ethoxy)ethoxy)-N-(2-((2-(2,6-dioxopiperidin-3-yl)-1,3-dioxoisoindolin-4-yl)oxy)ethyl)propanamide], the viability at 1 µM was at least 50%.
Turning to `CCC(=O)N1CCN(c2ncnc3c(F)c(-c4c(F)cccc4OCCOCCOCCOCCNc4cccc5c4C(=O)N(C4CCC(=O)NC4=O)C5=O)c(Cl)cc23)CC1` (stereo not drawn) [Compound 9, 4-((2-(2-(2-(2-(2-(6-Chloro-8-fluoro-4-(4-propionylpiperazin-1-yl)quinazolin-7-yl)-3-fluorophenoxy)ethoxy)ethoxy)ethoxy)ethyl)amino)-2-(2,6-dioxopiperidin-3-yl)isoindoline-1,3-dione], the viability at 1 µM was at least 50%.
As to `C=CC(=O)N1CC(N2Cc3ccc(-c4cc(O)cc5ccccc45)cc3N(CCOCCC(=O)NCCOc3cccc4c3C(=O)N(C3CCC(=O)NC3=O)C4=O)C2=O)C1` (stereo not drawn) [Compound 10, 3-(2-(3-(1-Acryloylazetidin-3-yl)-7-(3-hydroxynaphthalen-1-yl)-2-oxo-3,4-dihydroquinazolin-1(2H)-yl)ethoxy)-N-(2-((2-(2,6-dioxopiperidin-3-yl)-1,3-dioxoisoindolin-4-yl)oxy)ethyl)propanamide], the viability at 1 µM was at least 50%.
